Laboratory results reported in patent US9084828B2, “Oligomer-protein tyrosine kinase inhibitor conjugates” (Nektar Therapeutics, priority 2009, dated 2015).
pIC50: −log10 of the molar value.

Key:
AKT1 = AKT1 (Homo sapiens, UniProt P31749); assay: Activity against various protein tyrosine kinases: AKT1; format: biochemical
AKT2 = AKT2 (Homo sapiens, UniProt P31751); assay: Activity against various protein tyrosine kinases: AKT2; format: biochemical
AurA = target: T1, AurA (Homo sapiens, UniProt O14965); assay: Activity against various protein tyrosine kinases: AurA; format: biochemical
T1 sequence (O14965 1-403): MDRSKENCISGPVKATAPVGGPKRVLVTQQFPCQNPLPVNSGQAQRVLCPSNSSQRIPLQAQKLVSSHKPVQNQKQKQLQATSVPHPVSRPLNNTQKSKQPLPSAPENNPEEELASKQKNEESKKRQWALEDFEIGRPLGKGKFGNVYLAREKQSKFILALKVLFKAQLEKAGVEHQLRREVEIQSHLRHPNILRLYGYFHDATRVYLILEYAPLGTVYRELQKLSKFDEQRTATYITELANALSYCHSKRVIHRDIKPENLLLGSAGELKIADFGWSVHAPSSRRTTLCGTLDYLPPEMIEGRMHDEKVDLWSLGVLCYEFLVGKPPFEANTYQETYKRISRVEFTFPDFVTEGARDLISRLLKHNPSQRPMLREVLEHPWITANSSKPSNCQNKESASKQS

CHK2 = CHK2 (Homo sapiens, UniProt O96017); assay: Activity against various protein tyrosine kinases: CHK2; format: biochemical
Chain of CHK2 (O96017 whole entry, species assumed): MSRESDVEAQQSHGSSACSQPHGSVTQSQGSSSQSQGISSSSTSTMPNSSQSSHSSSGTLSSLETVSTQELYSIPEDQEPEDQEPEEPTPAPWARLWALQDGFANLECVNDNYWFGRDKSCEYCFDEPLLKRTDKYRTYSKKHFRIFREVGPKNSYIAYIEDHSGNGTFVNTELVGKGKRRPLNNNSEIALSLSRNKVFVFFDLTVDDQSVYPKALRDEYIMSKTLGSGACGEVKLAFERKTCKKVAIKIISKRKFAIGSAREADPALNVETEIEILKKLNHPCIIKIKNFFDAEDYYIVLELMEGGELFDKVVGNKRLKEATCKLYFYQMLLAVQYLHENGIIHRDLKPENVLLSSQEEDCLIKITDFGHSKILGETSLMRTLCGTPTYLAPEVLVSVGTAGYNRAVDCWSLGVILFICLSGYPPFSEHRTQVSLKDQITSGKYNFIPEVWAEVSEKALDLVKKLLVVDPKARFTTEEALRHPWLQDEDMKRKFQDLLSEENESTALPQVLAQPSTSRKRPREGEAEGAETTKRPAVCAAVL

CKIT = CKIT (Homo sapiens, UniProt P10721); assay: Activity against various protein tyrosine kinases: CKIT; format: biochemical
Erk1 = Erk1 (Homo sapiens, UniProt P27361); assay: Activity against various protein tyrosine kinases: Erk1; format: biochemical
Fer = Fer (Homo sapiens, UniProt P16591); assay: Activity against various protein tyrosine kinases: Fer; format: biochemical
Chain of Fer (P16591 whole entry, species assumed): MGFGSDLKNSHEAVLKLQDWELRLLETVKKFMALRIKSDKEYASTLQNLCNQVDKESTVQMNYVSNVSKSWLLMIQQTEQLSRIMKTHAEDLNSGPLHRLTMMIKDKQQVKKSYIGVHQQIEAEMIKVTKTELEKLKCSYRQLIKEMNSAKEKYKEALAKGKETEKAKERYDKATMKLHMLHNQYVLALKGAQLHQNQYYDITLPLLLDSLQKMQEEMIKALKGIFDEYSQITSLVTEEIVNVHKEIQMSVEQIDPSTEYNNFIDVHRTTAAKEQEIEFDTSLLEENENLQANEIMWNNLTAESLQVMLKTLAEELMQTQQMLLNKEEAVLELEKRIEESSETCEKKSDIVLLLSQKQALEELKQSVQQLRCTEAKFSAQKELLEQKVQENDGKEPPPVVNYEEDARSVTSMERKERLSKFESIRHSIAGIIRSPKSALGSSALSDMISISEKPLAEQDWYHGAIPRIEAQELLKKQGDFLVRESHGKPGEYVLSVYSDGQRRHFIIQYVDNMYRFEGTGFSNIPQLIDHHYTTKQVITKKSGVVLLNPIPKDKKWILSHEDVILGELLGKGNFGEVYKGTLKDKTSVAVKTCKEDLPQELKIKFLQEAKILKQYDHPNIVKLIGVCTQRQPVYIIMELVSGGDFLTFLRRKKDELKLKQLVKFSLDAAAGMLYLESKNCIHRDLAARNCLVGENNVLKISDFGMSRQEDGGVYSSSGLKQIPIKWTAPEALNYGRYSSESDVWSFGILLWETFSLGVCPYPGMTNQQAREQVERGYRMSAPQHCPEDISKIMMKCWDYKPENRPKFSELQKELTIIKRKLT

FGFR1 = FGFR1 (Homo sapiens, UniProt P11362); assay: Activity against various protein tyrosine kinases: FGFR1; format: biochemical
Description: Using techniques know those of ordinary skill in the art, compounds were tested for activity against various protein tyrosine kinases.

FGFR2 = FGFR2 (Homo sapiens, UniProt P21802); assay: Activity against various protein tyrosine kinases: FGFR2; format: biochemical
Chain of FGFR2 (P21802 22-821, species assumed): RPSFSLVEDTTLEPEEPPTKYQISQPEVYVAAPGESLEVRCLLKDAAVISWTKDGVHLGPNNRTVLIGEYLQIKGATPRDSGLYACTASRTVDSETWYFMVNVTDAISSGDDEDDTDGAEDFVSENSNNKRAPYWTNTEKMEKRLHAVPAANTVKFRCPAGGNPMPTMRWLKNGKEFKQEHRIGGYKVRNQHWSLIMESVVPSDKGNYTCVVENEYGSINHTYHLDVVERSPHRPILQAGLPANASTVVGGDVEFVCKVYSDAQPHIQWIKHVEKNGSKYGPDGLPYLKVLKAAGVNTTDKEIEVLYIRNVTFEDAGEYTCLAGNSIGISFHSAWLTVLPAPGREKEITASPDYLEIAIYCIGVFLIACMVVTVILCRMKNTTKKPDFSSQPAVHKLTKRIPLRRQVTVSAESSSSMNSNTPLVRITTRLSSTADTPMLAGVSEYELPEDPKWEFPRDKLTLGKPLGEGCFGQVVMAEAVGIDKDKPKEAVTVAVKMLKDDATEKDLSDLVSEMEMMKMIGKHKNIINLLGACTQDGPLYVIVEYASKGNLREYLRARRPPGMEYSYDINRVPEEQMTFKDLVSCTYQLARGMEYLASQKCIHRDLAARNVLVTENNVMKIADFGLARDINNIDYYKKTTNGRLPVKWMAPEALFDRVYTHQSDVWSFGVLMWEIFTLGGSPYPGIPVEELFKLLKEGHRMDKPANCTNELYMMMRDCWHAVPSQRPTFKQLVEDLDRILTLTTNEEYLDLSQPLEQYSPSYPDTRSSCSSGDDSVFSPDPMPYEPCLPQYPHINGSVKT

FGFR3 = FGFR3 (Homo sapiens, UniProt P22607); assay: Activity against various protein tyrosine kinases: FGFR3; format: biochemical
LYN = LYN (Homo sapiens, UniProt P07948); assay: Activity against various protein tyrosine kinases: LYN; format: biochemical
PDGFR_beta = PDGFR_beta (Homo sapiens, UniProt P09619); assay: Activity against various protein tyrosine kinases: PDGFR_beta; format: biochemical
Chain of PDGFR_beta (P09619 33-1106, species assumed): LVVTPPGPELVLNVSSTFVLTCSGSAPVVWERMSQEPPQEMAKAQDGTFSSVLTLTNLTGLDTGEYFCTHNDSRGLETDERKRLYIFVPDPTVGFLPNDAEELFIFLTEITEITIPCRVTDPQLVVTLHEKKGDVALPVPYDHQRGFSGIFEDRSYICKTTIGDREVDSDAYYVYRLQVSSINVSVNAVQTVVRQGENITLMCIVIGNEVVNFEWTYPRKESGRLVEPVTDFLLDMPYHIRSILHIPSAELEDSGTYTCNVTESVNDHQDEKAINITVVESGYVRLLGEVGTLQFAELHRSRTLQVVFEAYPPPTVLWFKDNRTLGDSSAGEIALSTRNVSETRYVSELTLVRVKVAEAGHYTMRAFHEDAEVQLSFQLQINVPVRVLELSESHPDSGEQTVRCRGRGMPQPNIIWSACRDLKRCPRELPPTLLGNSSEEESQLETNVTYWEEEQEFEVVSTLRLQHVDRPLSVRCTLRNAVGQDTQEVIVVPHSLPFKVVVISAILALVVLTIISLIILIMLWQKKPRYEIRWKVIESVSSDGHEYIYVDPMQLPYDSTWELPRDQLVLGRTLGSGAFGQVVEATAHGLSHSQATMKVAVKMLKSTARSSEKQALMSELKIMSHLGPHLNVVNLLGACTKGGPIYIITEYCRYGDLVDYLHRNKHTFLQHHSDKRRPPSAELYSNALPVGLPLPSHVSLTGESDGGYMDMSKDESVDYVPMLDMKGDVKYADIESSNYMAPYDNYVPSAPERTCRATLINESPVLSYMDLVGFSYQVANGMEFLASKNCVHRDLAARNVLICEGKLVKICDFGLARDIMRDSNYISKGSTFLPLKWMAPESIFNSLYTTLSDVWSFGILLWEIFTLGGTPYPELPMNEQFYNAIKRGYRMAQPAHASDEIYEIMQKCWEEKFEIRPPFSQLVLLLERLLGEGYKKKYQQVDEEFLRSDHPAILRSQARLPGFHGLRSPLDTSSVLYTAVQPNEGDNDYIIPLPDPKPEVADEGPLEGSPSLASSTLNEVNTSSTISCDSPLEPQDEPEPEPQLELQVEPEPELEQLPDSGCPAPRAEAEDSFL

PKD2 = target: T2, PKD2 (Homo sapiens, UniProt Q9BZL6); assay: Activity against various protein tyrosine kinases: PKD2; format: biochemical
T2 sequence (Q9BZL6 1-878): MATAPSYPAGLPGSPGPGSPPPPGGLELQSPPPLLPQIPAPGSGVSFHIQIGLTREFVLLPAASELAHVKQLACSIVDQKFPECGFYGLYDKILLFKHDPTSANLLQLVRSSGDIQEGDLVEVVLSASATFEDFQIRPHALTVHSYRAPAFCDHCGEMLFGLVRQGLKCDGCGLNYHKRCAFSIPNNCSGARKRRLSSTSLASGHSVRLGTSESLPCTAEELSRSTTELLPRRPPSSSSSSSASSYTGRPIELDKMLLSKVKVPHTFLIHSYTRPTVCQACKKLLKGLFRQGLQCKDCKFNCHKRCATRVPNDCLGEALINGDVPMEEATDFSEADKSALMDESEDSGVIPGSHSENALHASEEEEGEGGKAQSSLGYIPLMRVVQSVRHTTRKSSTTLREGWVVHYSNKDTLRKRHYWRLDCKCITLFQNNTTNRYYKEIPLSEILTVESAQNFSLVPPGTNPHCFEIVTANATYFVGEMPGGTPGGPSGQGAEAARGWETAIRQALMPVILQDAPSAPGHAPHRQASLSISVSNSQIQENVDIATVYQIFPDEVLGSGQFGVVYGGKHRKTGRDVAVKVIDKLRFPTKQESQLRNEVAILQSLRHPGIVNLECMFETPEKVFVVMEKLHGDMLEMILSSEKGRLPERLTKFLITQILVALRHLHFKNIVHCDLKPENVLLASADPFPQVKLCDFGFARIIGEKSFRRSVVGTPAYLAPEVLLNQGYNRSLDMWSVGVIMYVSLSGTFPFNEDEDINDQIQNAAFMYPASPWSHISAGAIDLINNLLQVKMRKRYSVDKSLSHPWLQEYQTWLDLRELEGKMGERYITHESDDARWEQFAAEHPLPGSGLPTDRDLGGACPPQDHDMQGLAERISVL

RSK1 = RSK1 (Homo sapiens, UniProt Q15418); assay: Activity against various protein tyrosine kinases: RSK1; format: biochemical
Chain of RSK1 (Q15418 whole entry, species assumed): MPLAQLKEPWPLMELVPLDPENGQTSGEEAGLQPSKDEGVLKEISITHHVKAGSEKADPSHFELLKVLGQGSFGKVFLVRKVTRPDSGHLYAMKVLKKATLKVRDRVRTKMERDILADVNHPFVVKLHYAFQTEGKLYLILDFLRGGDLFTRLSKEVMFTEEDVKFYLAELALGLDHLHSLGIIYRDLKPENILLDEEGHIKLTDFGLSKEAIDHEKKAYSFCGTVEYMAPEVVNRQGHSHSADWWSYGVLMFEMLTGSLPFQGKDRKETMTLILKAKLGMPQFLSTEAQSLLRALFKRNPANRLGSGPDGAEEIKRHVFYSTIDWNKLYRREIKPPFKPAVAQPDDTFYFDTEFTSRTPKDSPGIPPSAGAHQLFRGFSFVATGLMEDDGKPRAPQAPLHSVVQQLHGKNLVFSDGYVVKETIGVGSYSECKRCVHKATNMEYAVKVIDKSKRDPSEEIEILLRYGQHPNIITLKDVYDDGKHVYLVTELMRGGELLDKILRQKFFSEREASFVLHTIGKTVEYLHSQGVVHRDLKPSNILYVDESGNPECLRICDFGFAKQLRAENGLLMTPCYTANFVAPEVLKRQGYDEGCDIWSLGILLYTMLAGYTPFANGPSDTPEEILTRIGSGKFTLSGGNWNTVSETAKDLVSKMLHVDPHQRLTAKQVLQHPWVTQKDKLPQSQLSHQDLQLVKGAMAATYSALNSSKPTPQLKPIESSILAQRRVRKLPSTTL

ABL = ABL (Homo sapiens, UniProt P00519); assay: ABL tyrosine kinase inhibition, off-chip incubation mobility-shift kinase assay (Caliper LABCHIP 3000); details: for pIC50: ABL, ATP at Km 14 μM, unit inferred; for ABL AVG % Activity at Specific Concentration: average of replicate wells
[1] = at 1.0E−09 (concentration unit not given)
[2] = at 1.0E−10 (concentration unit not given)
[3] = at 1.0E−11 (concentration unit not given)
[4] = at 3.0E−09 (concentration unit not given)
[5] = at 3.0E−10 (concentration unit not given)
[6] = at 3.0E−11 (concentration unit not given)

Chain of AKT2 (P31751 whole entry, species assumed): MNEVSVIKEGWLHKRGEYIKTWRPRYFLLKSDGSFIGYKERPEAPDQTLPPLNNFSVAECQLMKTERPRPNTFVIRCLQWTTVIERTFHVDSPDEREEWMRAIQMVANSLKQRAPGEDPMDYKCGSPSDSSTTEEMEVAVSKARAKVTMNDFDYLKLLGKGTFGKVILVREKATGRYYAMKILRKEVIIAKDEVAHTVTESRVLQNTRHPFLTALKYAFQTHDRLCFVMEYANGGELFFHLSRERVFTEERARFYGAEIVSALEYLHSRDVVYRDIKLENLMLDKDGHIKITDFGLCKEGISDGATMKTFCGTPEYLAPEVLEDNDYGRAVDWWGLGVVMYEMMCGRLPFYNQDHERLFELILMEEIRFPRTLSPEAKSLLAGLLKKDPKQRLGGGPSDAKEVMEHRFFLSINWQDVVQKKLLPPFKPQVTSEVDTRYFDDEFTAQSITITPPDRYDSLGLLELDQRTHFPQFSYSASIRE
Chain of AKT1 (P31749 whole entry, species assumed): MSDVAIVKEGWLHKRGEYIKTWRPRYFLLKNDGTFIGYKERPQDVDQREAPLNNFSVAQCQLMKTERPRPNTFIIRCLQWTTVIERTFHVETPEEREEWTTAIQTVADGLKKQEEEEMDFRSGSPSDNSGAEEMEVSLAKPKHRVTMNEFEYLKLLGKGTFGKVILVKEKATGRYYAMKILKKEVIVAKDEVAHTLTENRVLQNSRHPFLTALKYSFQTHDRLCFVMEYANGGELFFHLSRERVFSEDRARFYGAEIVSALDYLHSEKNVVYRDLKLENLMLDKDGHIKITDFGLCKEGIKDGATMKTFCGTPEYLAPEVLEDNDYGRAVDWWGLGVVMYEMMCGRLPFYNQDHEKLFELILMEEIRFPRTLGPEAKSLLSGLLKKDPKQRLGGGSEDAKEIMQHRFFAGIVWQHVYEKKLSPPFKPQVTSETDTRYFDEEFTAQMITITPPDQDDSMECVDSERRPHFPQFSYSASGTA

| SMILES | % Inhibition at 10 nM (AKT1) [%] | % Inhibition at 1 μM (AKT1) [%] | % Inhibition at 10 nM (AKT2) [%] | % Inhibition at 1 μM (AKT2) [%] | % Inhibition at 10 nM (AurA) [%] | % Inhibition at 1 μM (AurA) [%] | % Inhibition at 10 nM (CHK2) [%] | % Inhibition at 1 μM (CHK2) [%] | % Inhibition at 10 nM (CKIT) [%] | % Inhibition at 1 μM (CKIT) [%] | % Inhibition at 10 nM (Erk1) [%] | % Inhibition at 1 μM (Erk1) [%] | % Inhibition at 10 nM (Fer) [%] | % Inhibition at 1 μM (Fer) [%] | % Inhibition at 10 nM (FGFR1) [%] | % Inhibition at 1 μM (FGFR1) [%] | % Inhibition at 10 nM (FGFR2) [%] | % Inhibition at 1 μM (FGFR2) [%] | % Inhibition at 10 nM (FGFR3) [%] | % Inhibition at 1 μM (FGFR3) [%] | other results |
| --- | --- | --- | --- | --- | --- | --- | --- | --- | --- | --- | --- | --- | --- | --- | --- | --- | --- | --- | --- | --- | --- |
| COCCOCCOCCNC(=O)OCCN1CCN(c2cc(Nc3ncc(C(=O)Nc4c(C)cccc4Cl)s3)nc(C)n2)CC1 [mPEG3-NHCOO-Dasatinib] | 7 | 0 | 9 | 7 | −7 | 19 | 1 | 11 | 34 | 100 | 3 | 2 | −4 | 5 | 11 | −3 | −2 | 38 | 3 | 11 | % Inhibition at 10 nM (LYN): 99%; % Inhibition at 1 μM (LYN): 99%; % Inhibition at 10 nM (PDGFR_beta): 48%; % Inhibition at 1 μM (PDGFR_beta): 99%; % Inhibition at 10 nM (PKD2): 12%; % Inhibition at 1 μM (PKD2): −5%; % Inhibition at 10 nM (RSK1): 2%; % Inhibition at 1 μM (RSK1): 0%; pIC50 (ABL): 9.52; ABL AVG % Activity at Specific Concentration (ABL; [1]): 4%; ABL AVG % Activity at Specific Concentration (ABL; [2]): 81%; ABL AVG % Activity at Specific Concentration (ABL; [3]): 99%; ABL AVG % Activity at Specific Concentration (ABL; [4]): 0%; ABL AVG % Activity at Specific Concentration (ABL; [5]): 47%; ABL AVG % Activity at Specific Concentration (ABL; [6]): 95% |
| COCCOCCOCCOCCOCCOCCOCCNC(=O)OCCN1CCN(c2cc(Nc3ncc(C(=O)Nc4c(C)cccc4Cl)s3)nc(C)n2)CC1 [mPEG7-NHCOO-Dasatinib] | −1 | 0 | 3 | 3 | 3 | 28 | 2 | 1 | 34 | 100 | 3 | 4 | −2 | 5 | 2 | 3 | 5 | 35 | 2 | 10 | % Inhibition at 10 nM (LYN): 98%; % Inhibition at 1 μM (LYN): 98%; % Inhibition at 10 nM (PDGFR_beta): 60%; % Inhibition at 1 μM (PDGFR_beta): 100%; % Inhibition at 10 nM (PKD2): 3%; % Inhibition at 1 μM (PKD2): 4%; % Inhibition at 10 nM (RSK1): 0%; % Inhibition at 1 μM (RSK1): 4%; pIC50 (ABL): 9.49; ABL AVG % Activity at Specific Concentration (ABL; [1]): 4%; ABL AVG % Activity at Specific Concentration (ABL; [2]): 80%; ABL AVG % Activity at Specific Concentration (ABL; [3]): 98%; ABL AVG % Activity at Specific Concentration (ABL; [4]): −1%; ABL AVG % Activity at Specific Concentration (ABL; [5]): 48%; ABL AVG % Activity at Specific Concentration (ABL; [6]): 91% |
